pIC50: −log10 of the molar value. Where a name gives a salt, the structure may show the parent alone. Read-outs that look alike come from different tables or passages of the source.
What was measured:
[1] = test system: B16F10 melanoma; experiment: Tumor Cell Clearance Test B16F10 Melanoma; assay type: in vivo, mouse; conditions: for CPM/Lung (Mean + SEM): labelled B16F10 cells i.v. 24 h later, lungs counted 18 h later; for CPM/Lung (Mean + SEM) / Treated/Control: N=6; for Treated/Control: T/C <0.40 considered positive
Excerpt: One common route of cancer spread is through the blood. Very few cancer cells survive this hostile environment to go on and form metastases; NK cells and macrophages are believed to play an important role in controlling this hematogenous spread (Hanna, N. Cancer Research, 42:1337, 1982). Following the injection of various immunomodulators, macrophages and NK cells can be removed and shown to kill tumor cells in tissue culture. […] In the tumor cell clearance assay detailed below, radiolabelled tumor cells are injected intravenously (i.v.) into mice injected with an immunomodulator one day earlier. A decreased number of tumor cells, as reflected by a decreased amount of radioactivity remaining in the lungs, is used as an endpoint.
The B16 tumor line established from melanoma tumor which arose spontaneously on the skin at the base of the ear in a C57BL mouse. The B16F10 tumor subline was derived from the parent B16 line by selection for its ability to form lung tumors […] after i.v. injection and was subsequently established in vitro after 10 cycles of lung metastasis formation (Fidler, Eur. J. Cancer 9:223, 1973). The B16F10 tumor line is maintained by serial passage in vitro.
On day 0 female mice are injected intraperitoneally (i.p.) with test compound (6 mice/group) or vehicle alone (10 mice/group). Twenty-four hours later all mice are injected intravenously with 100,000 [^125 I] Iododeoxyuridine labelled B16F10 melanoma cells in 0.2 mL. Eighteen hours later mice are sacrificed and lungs removed and counted on a gamma counter.
Control and experimental group mean values are compared to the vehicle control using a Student's t-test. Poly I:C is an immunostimulant which activates macrophages and NK cells to kill and clear tumor cells faster and thus results in fewer cpm/lung. Statistical significance is set at p<0.05, and compounds with treated/control (T/C) values of <0.40 are considered positive.

[2] = test system: L1210 cells; experiment: In vitro Growth Inhibitory Activity Determination (L1210, MTT); assay type: cell-based; conditions: 3 days at 37° C., read-out: ID50 (L1210)
Protocol: L1210 cells were maintained in RPM-1640 a medium supplemented with 10% heat inactivated fetal bovine serum and […] mercaptomethanol/liter medium (RPMI-L). B16 cells were maintained in RPMI-1640 medium supplemented with 15% heat inactivated fetal bovine serum and antibiotics (RPMI-C).
Exponential growing L1210 cells (1×10^3 cells) or B16 cells (2-3×10^3 cells) in 0.1 mL medium were seeded on day 0 in a 96-well microtiter plate. On day 1, 0.1 mL aliquot of medium containing graded concentration of test analogs was added to the initial volume. After incubation at 37° C. in a humidified incubator for 3 days, the plates were centrifuged briefly and […] of the growth medium was removed. Cell cultures were incubated with […] of 3-(4,5-dimethylthiazol-2-yl)-2,5-diphenyltetrazolium bromide (MTT; 1 mg/ml in Dulbecco's phosphate buffer saline) for 4 hr. at 37° C. The resulting purple formazan precipitate was solubilized with […] of 0.04 N HCl in isopropyl alcohol. Absorbance was read in a Titertek Multiskan MCC scanning well spectrophotometer (Flow Laboratories) at a test wavelength of 570 nm and a reference wavelength of 630 nm.
The absorbances were stored on a floppy disk on a IBM-XT and uploaded on to a VAX computer. The ID50 values were determined by a computer program that fit all of the data (8 determinations per concentration and 12 concentrations per test analog) to the following equation:
Y=((Am-Ao)/(1+(X/ID50)n))+Ao
Am=absorbance of the control cells
Ao=absorbance of the cells in the presence of highest drug conc.
ID50 =dose of drug that inhibits the growth of cells to one half that of the control cells

With `CCN(CCCCN(CC)CCCN1C(=O)c2ccc3c4c(ccc(c24)C1=O)CC3)CCCN1C(=O)c2ccc3c4c(ccc(c24)C1=O)CC3` [Example 3, 1,4-Bis-3-(1,3,6,7-tetrahydro-1,3-dioxo-2H-indeno6,7,1-def]isoquinoline-2-yl)-N-ethyl-propylamino]butane dihydrochloride] the “CPM/Lung (Mean + SEM)” value ([1]; 6.25 mg/kg i.p. on day 0) was 27953 + 2567 CPM/Lung, the Treated/Control ([1]; 6.25 mg/kg i.p.) was 0.90 and the “CPM/Lung (Mean + SEM)” value ([1]; 12.5 mg/kg i.p. on day 0) was 24905 + 2497 CPM/Lung. For the same molecule, the Treated/Control ([1]; 12.5 mg/kg i.p.) was 0.80, the “CPM/Lung (Mean + SEM)” value ([1]; 25 mg/kg i.p. on day 0) was 6992 + 1417 CPM/Lung and the Treated/Control ([1]; 25 mg/kg i.p., *p < 0.001 compared to vehicle control) was 0.23. The “CPM/Lung (Mean + SEM)” value ([1]; 50 mg/kg i.p. on day 0) was 3558 + 476 CPM/Lung, the Treated/Control ([1]; 50 mg/kg i.p., *p < 0.001 compared to vehicle control) was 0.11 and the “activating nonspecific immune cells against tumor cells” value ([1]; result in words, mice, B16F10 tumor cell clearance) was “effective in activating nonspecific immune cells against the B16F10 melanoma”. It also gave a pIC50 ([2]; Mus musculus, L1210, 72 h) of 7.66.

Work on `O=C1c2ccc3c4c(ccc(c24)C(=O)N1CCCNCCCCNCCCN1C(=O)c2ccc4c5c(ccc(c25)C1=O)CC4)CC3` [Example 2, 1.4-Bis-[3 3.6 7-tetrahydro-1.3-dioxo-2H-indeno[6,7,1-def]isoquinoline-2-yl)propyl-amino]butane dihydrochloride] yielded a pIC50 ([2]; dihydrochloride, 4320 min) of 5.76.

In the case of Poly I:C [reference compound], the “CPM/Lung (Mean + SEM)” value ([1]; 5 mg/kg i.p. on day 0) was 1044 + 87 CPM/Lung and the Treated/Control ([1]; 5 mg/kg i.p., *p < 0.001 compared to vehicle control) was 0.03.

With `O=C1c2ccc3c4c(ccc(c24)C(=O)N1CCCNCCCCNCCCN1C(=O)c2ccc4c5c(ccc(c25)C1=O)CC4)CC3` [Example 1, 1,4-Bis-[3-(1,3,6,7-tetrahydro-1,3-dioxo-2H-indeno[6,7,1-def]isoquinoline-2-yl)propyl)-amino]butane dihydromethanesulfonate] the pIC50 ([2]; Mus musculus, L1210, 72 h) was 5.52.

`O=C1c2ccc3c4c(ccc(c24)C(=O)N1CCCCNCCCN1C(=O)c2ccc4c5c(ccc(c25)C1=O)CC4)CC3` [Example 4, 4-3-(1,3,6,7-Tetrahydro-1,3-dioxo-2H-indeno6,7,1-def]isoquinoline-2-yl)propyl-amino1-1-(1,3,6,7-tetrahydro-1,3-dioxo-2H-indeno-6,7,1-def]isoquinoline-2-yl)butane methanesulfonate] was tested, and the pIC50 ([2]; Mus musculus, L1210, 72 h) was 6.54.
